≈ marks a conversion by molar mass, not a printed value. Where two headings read alike, the source gives them in different places.

Experiment [1] relates to M. suipneumoniae J2206/183^b. The experiment in a line: MIC against Mycoplasma in vitro (agar). The settings on record: Friis broth solidified with 0.9% agarose, 6 days at 37°C. The format is cell-based.
Experiment [2] concerns Haemophilus influenzae Wy21. Briefly: MIC against Human Bacteria in vitro (agar dilution). The class given is cell-based. The following applies: agar with 5% chocolated horse blood, 18 hours at 37°C.
A further experiment deals with S. dublin S7. The experiment in a line: MIC against Veterinary Bacteria in vitro (agar dilution). On the technique in general: Agar dilution tests growth on a series of plates holding different concentrations.
For the next experiment, the system named is M. suipneumoniae Str. 11. Briefly: MIC against Mycoplasma in vitro (agar). The class given is cell-based. The following applies: Friis broth solidified with 0.9% agarose, 6 days at 37°C.
The subject of a further experiment is Bord. bronchiseptica B09. The experiment in a line: MIC against Veterinary Bacteria in vitro (agar dilution).
Another experiment deals with Staph. aureus Russell. Briefly: MIC against Human Bacteria in vitro (agar dilution). The class given is cell-based. The following applies: agar with 5% chocolated horse blood, 18 hours at 37°C.
For a further experiment, the system named is S. typhimurium S18. The experiment in a line: MIC against Veterinary Bacteria in vitro (agar dilution).
For a further experiment, the system named is Staph. aureus W2827. Briefly: MIC against Human Bacteria in vitro (agar dilution). The class given is cell-based. The settings on record: agar with 5% chocolated horse blood, 18 hours at 37°C.
For experiment [3], the system named is Corynebacterium pyogenes CY1. The experiment in a line: MIC against Veterinary Bacteria in vitro (agar dilution). The settings on record: Diagnostic Sensitivity Test Agar, 18 hours at 37°C.
Procedure: (§1) The activity of the compounds of the Examples against various veterinarily important bacteria, was assayed in vitro using two-fold serial dilutions in Diagnostic Sensitivity Test Agar inoculated with 10^4 organisms.
The next experiment deals with M. gallisepticum S6. The experiment in a line: MIC against Mycoplasma in vitro (agar). The class given is cell-based. The following applies: Friis broth solidified with 0.9% agarose, 6 days at 37°C.
A further experiment concerns M. suipneumoniae UCD 1. Briefly: MIC against Mycoplasma in vitro (agar). The class given is cell-based. The following applies: Friis broth solidified with 0.9% agarose, 6 days at 37°C.
The test system of experiment [4] is Pasteurella multocida 1633. Briefly: MIC against Human Bacteria in vitro (agar dilution). The format is cell-based. The settings on record: agar with 5% chocolated horse blood, 18 hours at 37°C.
Another experiment deals with P. mirabilis 889. Described as above. The class given is cell-based. The following applies: agar with 5% chocolated horse blood, 18 hours at 37°C.
In the next experiment the test system is M. dispar NCTC 10125. The experiment in a line: MIC against Mycoplasma in vitro (agar). The format is cell-based. The following applies: Friis broth solidified with 0.9% agarose, 6 days at 37°C.
The test system of experiment [5] is M. suipneumoniae PW/C/210. Briefly: MIC against Mycoplasma in vitro (agar). The class given is cell-based. The following applies: Friis broth solidified with 0.9% agarose, 6 days at 37°C.
The next experiment has as its system M. pneumoniae ATCC 15492. Briefly: MIC against Mycoplasma in vitro (agar). The following applies: Friis broth solidified with 0.9% agarose, 6 days at 37°C. The class given is cell-based.
The test system of experiment [6] is Strep. pyogenes R80/421-A. Briefly: MIC against Human Bacteria in vitro (agar dilution). The settings on record: Streptococcus pyogenes, agar with 5% chocolated horse blood, 18 hours at 37°C. The class given is cell-based.
In another experiment the test system is Strep. pyogenes 64/848-C. Described as above. The format is cell-based. The following applies: Streptococcus pyogenes, agar with 5% chocolated horse blood, 18 hours at 37°C.
The mark [7] stands for this setting: Mesomycoplasma hyopneumoniae, 144 h, read-out: MIC.
The mark [8] stands for this setting: Staphylococcus aureus, read-out: MIC.

Procedure for Bord. bronchiseptica B09: as §1
Procedure for S. dublin S7: as §1
Procedure for S. typhimurium S18: as §1

As for Methyl pseudomonate D [Example 2], the MIC in experiment [1] was 5.0 µg/mL; in experiment [2], 0.1 µg/mL; against S. dublin S7 (S. dublin S7, Diagnostic Sensitivity Test Agar, 18 hours at 37°C), 80 µg/mL; in the experiment on M. suipneumoniae Str. 11, 2.5 µg/mL; with Bord. bronchiseptica B09 (Bord. bronchiseptica B09, Diagnostic Sensitivity Test Agar, 18 hours at 37°C), 10 µg/mL; in the experiment on Staph. aureus Russell it was 2.5 µg/mL. For the same compound, the MIC is 80 µg/mL against S. typhimurium S18 (S. typhimurium S18, Diagnostic Sensitivity Test Agar, 18 hours at 37°C); 1.0 µg/mL against Staph. aureus W2827; 80 µg/mL in [3]; above 10 µg/mL with M. gallisepticum S6; 5.0 µg/mL in the experiment with M. suipneumoniae UCD 1; 0.5 µg/mL in experiment [4]. The MIC is above 100 µg/mL in the experiment with P. mirabilis 889, 1.0 µg/mL in the experiment with M. dispar NCTC 10125, 2.5 µg/mL in experiment [5] and above 10 µg/mL with M. pneumoniae ATCC 15492.

For the compound `CC(=CC(=O)OCCCCC=CCCC(=O)O)CC1OCC(CC2OC2C(C)C(C)O)C(O)C1O` (stereo not shown) [Example 1, pseudomonic acid D], the MIC was 2.5 µg/mL (≈ 5.01 µM) in experiment [1] (setting [7]); above 20 µg/mL against S. dublin S7 (Salmonella enterica, S7, 18 h); 1 µg/mL (≈ 2.01 µM) with M. suipneumoniae Str. 11 (setting [7]); 5 µg/mL (≈ 10 µM) against Bord. bronchiseptica B09 (Bordetella bronchiseptica, B09, 18 h); 1 µg/mL (≈ 2.01 µM) with Staph. aureus Russell (setting [8]); 0.5 µg/mL (≈ 1 µM) in [6]. In addition, the MIC against S. typhimurium S18 (Salmonella enterica, TYPHIMURIUM, 18 h) is above 20 µg/mL; against Strep. pyogenes 64/848-C, 0.25 µg/mL (≈ 0.501 µM); in the experiment with Staph. aureus W2827 (setting [8]), 1 µg/mL (≈ 2.01 µM); with M. gallisepticum S6 (Mycoplasmoides gallisepticum, 144 h, read-out: MIC), above 10 µg/mL; in the experiment on M. suipneumoniae UCD 1 (Mesomycoplasma hyopneumoniae, UCD1, 144 h, read-out: MIC), 5 µg/mL (≈ 10 µM); in experiment [4] (read-out: MIC), 0.25 µg/mL (≈ 0.501 µM). Besides, the MIC with P. mirabilis 889 (Proteus mirabilis, read-out: MIC) is above 25 µg/mL; in the experiment with M. dispar NCTC 10125 (144 h, read-out: MIC) it was 2.5 µg/mL (≈ 5.01 µM); in experiment [5] (setting [7]), 1 µg/mL (≈ 2.01 µM).
